Reference: patent US4340602A, “Compositions inhibiting estrogen sulfotransferase activity” (Wayne State University, priority 1978, dated 1982)
Like-named read-outs stand apart in the source and are kept apart here.

What was measured:
[1] = target: T1, Bovine Adrenal Estrogen Sulfotransferase (Bos taurus, UniProt P19217); assay: Inhibition of bovine adrenal estrogen sulfotransferase (estrone sulfurylation); assay type: biochemical
T1 construct: The enzyme was isolated from the bovine adrenals; from tissue; host or cells: bovine adrenals; purified by ammonium sulfate fractionation and chromatography on DEAE-cellulose or DEAE-Sephadex A-50
T1 sequence (P19217 1-295): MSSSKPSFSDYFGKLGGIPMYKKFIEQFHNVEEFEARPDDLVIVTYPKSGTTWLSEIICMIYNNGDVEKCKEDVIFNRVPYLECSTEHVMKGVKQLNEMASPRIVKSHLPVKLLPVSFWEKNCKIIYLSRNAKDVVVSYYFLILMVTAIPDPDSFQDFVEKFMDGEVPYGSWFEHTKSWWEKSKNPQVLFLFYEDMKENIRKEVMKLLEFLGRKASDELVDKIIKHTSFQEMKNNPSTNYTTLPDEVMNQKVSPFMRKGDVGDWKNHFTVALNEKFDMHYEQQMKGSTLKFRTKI
Protocol: Materials are evaluated for activity as estrogen sulfotransferase inhibitors by the method of Rozhin et al, Journal of Biological Chemistry, 252:7214-7220 (October 25, 1977), herein incorporated by reference.
Isolation of Estrogen Sulfotransferase (EC 2.8.2.4). The enzyme was isolated from the bovine adrenals and purified by ammonium sulfate fractionation and column chromatography on DEAE-cellulose or DEAE-SephadexA-50 [Rozhin et al (1974)].
Standard Enzyme Assay. The incubation mixtures contained the following in a total volume of 0.2 ml: 0.4 mM P-Ado-PS; 2 to 23 μM estrone (3-hydroxy-1,3,5(10)-estratriene-17-one), 5×10^5 dpm of [6,7-^3 H]estrone; 5 mM magnesium acetate; 0.19 M Tris/HCl buffer (pH 8.1 at 37°); 5 ug of the enzyme; and 25 μM dithiothreitol. After a 10-min incubation (in the presence of a constant amount of inhibitor and a variable amount of estrone), the boiled mixtures were supplemented with 5 μg of aqueous estrone sulfate. The remaining [^3 H]estrone was extracted three times with 0.3 ml of ethyl ether. The residual ether was removed and the volume adjusted to 0.5 ml with methanol. A sample (25 μl) was applied, together with 10 μg of methanolic estrone sulfate marker, to type SG chromatography media (Gelman Instrument Co., Ann Arbor, Mich.), and developed with chloroform/acetone/acetic acid (110:35:6). After drying the sheet, samples were visualized by spraying with methylene blue (25 mg in 100 ml of 0.05 N H2 SO4), punched out with a cork borer, and counted in 10 ml of dioxane counting liquid. A blank employing a boiled enzyme sample was incubated and the recorded counts were substracted from each determination. The total corrected counts, representing steroid sulfate ester, were converted to nanomoles utilizing the specific activity of [^3 H]estrone. An enzyme unit was defined as that quantity of enzyme which synthesized 1 nmol of estrone sulfate in 1 min under chosen conditions. […] When nonsubstrate steroids were used as the inhibitors, the procedure for the enzyme assay was as described earlier [Rozhin et al (1974)], utilizing 5 μg of enzyme, P-Ado-[^35 S]PS, and unlabeled estrone.
Data Processing. The initial velocity analysis was carried out keeping the concentration of P-Ado-PS at saturation level, varying the estrone concentration and keeping the concentration of the inhibitor at a fixed level. Preliminary plots of the data were made in the double reciprocal form (l/v versus l/[S]), and in the form of replots of slopes (and intercepts) versus inhibitor concentration. On the basis of these plots, the proper inhibition pattern was chosen for each experiment and the data points were fitted to the appropriate equation.
Linear competitive inhibition: [formula]
Hyperbolic competitive inhibition: [formula]
Slope-parabolic non-competitive inhibition: [formula]
All calculations were performed using Cleland's Fortran programs (Adv. Enzymol., 29:1-32). The programs gave the values of Km, Vmax, and inhibition constants.
Fractional Inhibition. From kinetic experiments, Ki was calculated as described above under "Data Processing" after making replots of slopes (and/or intercepts) versus inhibitor concentration. […] Substituting v and vi from the corresponding rate equations in the absence of (v=(Vmax [S])/(Km +[S])) and presence of a (competitive) inhibition (Equation 1), the following relationship for FI is obtained: [formula] After substituting [S], Km, and [I] (see above), the equation for the fractional (competitive) inhibition simplifies to: [formula] and the mathematical relationship between FI and Ki of competitive inhibitors is represented by the continuous curve in FIG. 2 in Rozhin et al., J. Biol. Chem., 252, 7214-7220, 1977. The dashed line represents the relationship between FI and the Ki of pure noncompetitive inhibition derived mathematically in an analogous manner and expressed as [formula] Since [I]=22.2 μM, [formula]

[2] = test system: 17β-estradiol receptor (rabbit uterus 100,000×g supernatant); assay: Competitive binding: effect on binding of 17β-estradiol (E2) by rabbit uterine tissue; settings: 2000-fold excess; 0.7 nM tritiated 17β-estradiol; 2 h on ice
Protocol: Competitive binding experiments were carried out utilizing the 100,000×g supernatant from rabbit uterus maintained at 4° C. Unlabeled competitive estrogens were added to the incubation 10 min. before tritiated 17β-estradiol. Incubations were carried out in quadruplicate for 2 h on ice. [2,4,6,7-^3 H]-17-Estradiol was added to 0.5 ml of supernatant (0.69 mg protein) at a concentration of 0.7 nM. Radioactivity in the bound 17β-estradiol was assayed by the dextran-coated charcoal (1:10) procedure.

[3] = test system: estrogen sulfotransferase; assay: Blocking of estrogen sulfotransferase activity by 3-methoxy-4-nitroestrone (Example 4); assay type: biochemical; settings: molar ratio of 10:1
[4] = pH 8.1, read-out: Fractional Inhibition (Table II)
[5] = inhibitors 2 to 4 and 9 to 12; from kinetic experiments; read-out: Ki (Table II), not among those calculated
[6] = pH 8.1; read-out: Fractional Inhibition (Table II)
[7] = inhibitors 2, 7 and 8; competitive inhibition equation; read-out: Ki (Table I), calculated from fractional inhibition (competitive inhibition)
[8] = pH 8.1; read-out: Fractional Inhibition (Table I)
[9] = pH 8.1, read-out: Fractional Inhibition (Table I)
[10] = inhibitors 3 to 6, 12 and 16; from kinetic experiments; read-out: Ki (Table I), determined experimentally
[11] = inhibitors 1 and 5 to 8; calculated from fractional inhibition; read-out: Ki (Table II), calculated from Equation 4 (competitive inhibition)

C[C@]12CC[C@@H]3c4ccc(O)cc4CC[C@H]3[C@@H]1C[C@@H](O)[C@@H]2O [1,3,5(10)Estratriene-3,16α,17β-triol]
Ki [1]: 8.2 µM
inhibition at 22.2 µM [1, 4]: 66%

C[C@]12CC[C@@H]3c4ccc(O)cc4CC[C@H]3[C@@H]1C[C@@H](O)C2 [1,3,5(10)Estratriene-3,16α-diol]
Ki [1, 5]: 1.3 µM
inhibition at 22.2 µM [1, 6]: 89%

C[C@]12CC[C@@H]3c4ccc(O)cc4CC[C@H]3[C@@H]1C[C@H](O)[C@@H]2O [1,3,5(10)Estratriene-3,16β,17β-triol]
Ki [1]: 5.5 µM
inhibition at 22.2 µM [1, 4]: 72%

CC(=O)Oc1ccc2c(c1)CC[C@@H]1[C@@H]2CC[C@]2(C)[C@@H](O)CC[C@@H]12 [1,3,5(10)Estratriene-3,17β-diol-3-acetate]
Ki [1, 7]: 17 µM
inhibition at 22.2 µM [1, 8]: 39%

C[C@]12CC[C@@H]3c4ccc(OC(=O)c5ccccc5)cc4CC[C@H]3[C@@H]1CC[C@@H]2O [1,3,5(10)Estratriene-3,17β-diol-3-benzoate]
Ki [1]: 90 µM
inhibition at 22.2 µM [1, 9]: 11%

C[C@@]12CCC[C@H]1[C@@H]1CCc3cc(O)ccc3[C@H]1CC2 [1,3,5(10)Estratriene-3-ol]
Ki [1, 10]: 3.5 µM
inhibition at 22.2 µM [1, 8]: 67%

C[C@]12CC[C@@H]3c4ccccc4CC[C@H]3[C@@H]1CC[C@@H]2O [1,3,5(10)Estratriene-17β-ol]
Ki [1, 7]: 16 µM
inhibition at 22.2 µM [1, 8]: 41%

C[C@@]12CCC[C@H]1[C@@H]1CCc3ccccc3[C@H]1CC2 [1,3,5(10)Estratriene]
inhibition at 22.2 µM [1, 8]: 0%

C[C@]12CC[C@@H]3c4cc(Br)c(O)c(Br)c4CC[C@H]3[C@@H]1CC[C@@H]2O [2,4-Dibromo-1,3,5(10)estratriene-3,17β-diol]
Ki [1, 11]: 0.11 µM
inhibition at 22.2 µM [1, 6]: 99%

C[C@]12CC[C@@H]3c4cc([N+](=O)[O-])c(O)c([N+](=O)[O-])c4CC[C@H]3[C@@H]1CC[C@@H]2O [2,4-Dinitro-1,3,5(10)estratriene-3,17β-diol]
Ki [1]: 4.3 µM
inhibition at 22.2 µM [1, 4]: 72%

C[C@]12CC[C@@H]3c4cc(N)c(O)cc4CC[C@H]3[C@@H]1CC[C@@H]2O [2-Amino-1,3,5(10)estratriene-3,17β-diol]
Ki [1, 11]: 3.5 µM
inhibition at 22.2 µM [1, 6]: 76%

C[C@]12CC[C@@H]3c4cc([N+](=O)[O-])c(O)cc4CC[C@H]3[C@@H]1CC[C@@H]2O [2-Nitro-1,3,5(10)estratriene-3,17β-diol]
Ki [1, 5]: 2.4 µM
inhibition at 22.2 µM [1, 6]: 80%

C[C@]12CC[C@@H]3c4ccc(O)cc4C(=O)C[C@H]3[C@@H]1CC[C@@H]2O [3,17β-Dihydroxy-1,3,5(10)-estratriene-6-one]
Ki [1]: 5.5 µM
inhibition at 22.2 µM [1, 4]: 69%

C[C@]12CC[C@@H]3c4ccc(O)cc4CC[C@H]3[C@@H]1CCC2=O [3-Hydroxy-1,3,5(10)estratriene-17-one]
Ki [1]: 4.9 µM
inhibition at 22.2 µM [1, 8]: 65%

COc1ccc2c(c1)CC[C@@H]1[C@@H]2CC[C@]2(C)[C@@H](O)CC[C@@H]12 [3-Methoxy-1,3,5(10)estratriene-17β-ol]
Ki [1, 10]: 4.8 µM
inhibition at 22.2 µM [1, 8]: 61%

COc1ccc2c(c1[N+](=O)[O-])CC[C@@H]1[C@@H]2CC[C@]2(C)C(=O)CC[C@@H]12 [3-Methoxy-4-NO2-1,3,5(10)-estratriene-17-one]
blocking of binding of 17β-estradiol to its receptor [2]: not blocked
blocked activity of estrogen sulfotransferase [3]: > 90%
Ki [1, 11]: 4.3 µM
inhibition at 22.2 µM [1, 6]: 72%

C[C@]12CC[C@H](O)CC1=CC[C@@H]1[C@@H]2CC[C@]2(C)C(=O)CC[C@@H]12 [3β-Hydroxy-5-androstene-17-one]
Ki [1]: 170 µM
inhibition at 22.2 µM [1, 9]: 21%

C[C@]12CC[C@H](O)C[C@H]1CC[C@@H]1[C@@H]2CC[C@]2(C)C(=O)CC[C@@H]12 [3β-Hydroxy-5β-androstane-17-one]
Ki [1]: 302 µM
inhibition at 22.2 µM [1, 9]: 13%

C[C@]12CC[C@@H]3c4ccc(O)c(N)c4CC[C@H]3[C@@H]1CC[C@@H]2O [4-Amino-1,3,5(10)estratriene-3,17β-diol]
Ki [1, 11]: 3.5 µM
inhibition at 22.2 µM [1, 6]: 76%

C[C@]12CC[C@@H]3c4ccc(O)c([N+](=O)[O-])c4CC[C@H]3[C@@H]1CC[C@@H]2O [4-Nitro-1,3,5(10)estratriene-3,17β-diol]
Ki [1, 5]: 0.15 µM
inhibition at 22.2 µM [1, 6]: 98%

C[C@]12CC[C@H]3[C@@H](CC=C4C[C@@H](O)CC[C@@]43C)[C@@H]1CC[C@@H]2O [5-Androstene-3β,17β-diol]
Ki [1]: 35 µM
inhibition at 22.2 µM [1, 9]: 39%

C[C@@]12CCC[C@H]1[C@@H]1CC=C3C[C@@H](O)CC[C@]3(C)[C@H]1CC2 [5-Androstene-3β-ol]
Ki ([1]; inhibitors 10, 11 and 13 to 15; Equation 5 (noncompetitive); read-out: Ki (Table I), calculated from fractional inhibition (noncompetitive inhibition)): 50 µM
inhibition at 22.2 µM [1, 8]: 31%

C[C@@]12CCC[C@H]1[C@@H]1CC=C3CCCC[C@]3(C)[C@H]1CC2 [5-Androstene]
inhibition at 22.2 µM [1, 8]: 0%
estrogen sulfotransferase inhibition, in words ([1]; summary statement): inactive

C[C@]12CC[C@H](O)C[C@@H]1CC[C@@H]1[C@@H]2CC[C@]2(C)[C@@H](O)CC[C@@H]12 [5α-Androstane-3β,17β-diol]
Ki [1]: 47 µM
inhibition at 22.2 µM [1, 9]: 32%

C[C@]12CCC(=O)C[C@@H]1CC[C@@H]1[C@@H]2CC[C@]2(C)[C@@H](O)CC[C@@H]12 [17β-Hydroxy-5α-androstane-3-one]
Ki [1]: 38 µM
inhibition at 22.2 µM [1, 9]: 37%

C[C@]12CCC(=O)C[C@H]1CC[C@@H]1[C@@H]2CC[C@]2(C)[C@@H](O)CC[C@@H]12 [17β-Hydroxy-5β-androstane-3-one]
Ki [1]: 74 µM
inhibition at 22.2 µM [1, 9]: 23%
